Assay results as given in patent US20030236301A1, “Liposomal delivery of vitamin E based compounds” (priority 2001, published 2003).
Several values for one entry are separate records, joined by “and”; a condition that tells them apart may be missing. Equal entries are not always repeated. Entries after “also recorded” stand apart in the source; their conditions may differ.

Columns and labels:
[1] = after thirty minutes, intramuscular delivery; cited from earlier work
[2] = test system: 66 c1.4 GFP murine mammary tumor cells; test: Lung and lymph node metastases of 66 c1.4-GFP tumors in Balb/c mice; format: in vivo
Text: Metastastic lesions in the five lung lobes were counted visually at time of sacrifice. Fluorescent green micro-metastatic cancer cell colonies in the left lung lobe and lymph nodes were counted using a Nikon fluorescence microscope (TE-200) with a 20×objective (200× magnification) and Image-Pro Plus (version 4.1; Media Cybernetics, Silver Spring, Md.) software associated with the microscope. Fluorescent lesions were separated into three size grouping: <5 μm, 5-10 μm and >10 μm.
At sacrifice, lungs were taken, examined visually for metastatic lesions and frozen for analyses of micrometastases by fluorescence.
Use of a Nikon fluorescence microscope and Image-Pro Plus software permitted measurement of green fluorescing micrometastases into three size groupings of <5 μm, 5-10 μm and >10 μm.
At sacrifice, the left lung lobe of each mouse of flash frozen and saves for detection of GFP expressing micrometatstic lesions via fluorescent microscopy.

[3] = Body weight and long term safety in Balb/c mice; format: in vivo
Protocol: Body weights were determined weekly.
Nine days after tumor inoculation, treatments groups are initiated: Aerosol Treatment (TX)=aerosol delivery of α-TEA liposome (5 mg/mouse)/daily through day 23. Aerosol Control=Aerosol delivery of liposome composition only daily through day 23. Gavage treatment=gavage administration of α-TEA at 5 mg/mouse in ethanol/peanut oil daily through day 23. Gavage control=gavage administration of ethanol/peanut oil only through day 23. Mice were weighed at the initiation of treatment (day 9) and thereafter on days 13, 16, 20, and 23 (FIG. 6). Data are presented as the mean+/−standard deviation.

[4] = test system: Poly (ADP-Ribose) Polymerase (PARP) cleavage in 66 c1.4-GFP cells; test: Western immunoblot detection of PARP cleavage fragment; format: cell-based, mouse; details: 48 hours
Protocol: Poly (ADP-Ribose) Polymerase cleavage was analyzed as an alternate method for detecting apoptosis. 66 c1.4-GFP cells were treated as described above for the DAPI assay. Following the PBS wash, cells were suspended in lysis buffer (1×PBS, 1% Nonidet P-40, 0.5% sodium deoxycholate, 0.1% sodium dodecyl sulfate (SDS), 1 μg/ml leupeptin, 1 μg/ml aprotinin, 1 mM dithiothreitol (DTT), 2 mM sodium orthovanadate, 10 μg/ml phenylmethylsulfonyl fluoride (PMSF)) for 30 min at 4° C., vortexed, and supernatants collected by centrifugation at 15,000×g for 20 min. Protein concentrations were determined using the Bio-Rad (Bradford) protein assay (Bio-Rad Laboratories, Hercules, Calif.), and samples (100 μg/lane) resolved on 7.5% SDS-polyacrylamide gels electrophoresed under reducing conditions.
Proteins were electroblotted onto a nitrocellulose membrane ([…] Optitran BA-S-supported nitrocellulose; Schleicher and Schuell, Keene, N.H.). After transfer, membranes were blocked with blocking buffer [25 mM Tris-HCl (pH 8.0), 125 mM NaCl, 0.5% Tween-20, and 5% non-fat dry milk] for 45 min at room temperature. Immunoblotting was performed using 1 μg of primary rabbit anti-human Poly (ADP-Ribose) Polymerase antibody [PARP (H-250), Santa Cruz Biotechnology, Santa Cruz, Calif.], and horseradish peroxidase-conjugated goat anti-rabbit immunoglobulin was used as the secondary antibody (Jackson Immunoresearch Laboratory, West Grove, Pa.) at a 1:3,000 dilution. Horseradish peroxidase-labeled bands from washed blots were detected by enhanced chemiluminescence (Pierce, Rockford, Ill.) and autoradiography (Kodak BioMax film; Rochester, N.Y.).

[5] = test system: A2780 cisplatin-sensitive cell line; test: Apoptosis in A2780 ovarian cancer cells in vitro; format: cell-based, human; details: treated in culture
66 c1.4-GFP cells [6] = test: Apoptosis by morphological evaluation of DAPI-stained nuclei; details: three days
Protocol: Briefly, 1×10^5 cells/well in 12-well plates were cultured overnight to permit attachment. […] After treatment, floating cells plus scraped-released adherent cells were pelleted by centrifugation for 5 min at 350×g, washed one time with phosphate buffered saline (PBS; 137 mM NaCl, 2.7 mM KCL, 10.4 mM Na2HPO4, 10.5 mM KH2PO4; pH 7.2), and stained with 2 μg/ml of 4′,6-diamidino-2-phenylindole dihydrochloride (DAPI, Boehringer Mannheim, Indianapolis, Ind.) in 100% methanol for 15 min at 37° C.
Cells were viewed at 400× magnification with a Zeiss ICM 405 fluorescent microscope using a 487701 filter. […] Data are reported as percentage of apoptotic cells per cell population, i.e., number apoptotic cells/total number of cells counted. Three different microscopic fields were examined and 200 cells counted at each location for a minimum of 600 cells counted per slide. Apoptotic data are presented as mean±S.D. for three independently conducted experiments.

[7] = test system: 66 c1.4 GFP murine mammary tumor cells; test: Tumor growth of 66 c1.4-GFP mammary tumor cells in Balb/c mice (tumor volume); details: for reduction of mean tumor volume vs aerosol control: Example 25: liposomal α-TEA/aerosol; for inhibition of tumor growth: Example 18: liposomal formulation by aerosol
Protocol: 66 c1.4-GFP cells were harvested by trypsinization, centrifuged, resuspended in McCoy's media, containing no supplements at a density of 2×10^5/100 μl. Mice were injected in the inguinal area at a point equal distance between the 4th and 5th nipples on the right side using a 23 gauge needle.
50 mice were assigned (10 per group) to aerosol treatment, aerosol control, oral treatment, oral control, or to the no treatment group so that the average tumor volume for all groups were closely matched. […] Tumors were measured using calipers every other day, and volumes were calculated using the formula: volume (mm^3) [width (mm)^2×length (mm)]/2. Body weights were determined weekly.
Balb/c mice were injected with 200,000 66 c1.4 GFP cells subcutaneous in the mammary fat pad area between the 4th and 5th nipple on the right side of the body.
Mice are injected with 200,000 66 c1.4 GFP murine mammary tumor cells as described on day 0. Treatments are initiated on day 9 when tumors reached 1-3 mm in size. Aerosol treatments of α-TEA liposomes (5 mg α-TEA/mouse) are administered daily for 16 days (FIG. 8). Data represent the mean+/−Standard Error (SE), N=10 mice for control and treatment groups.
Balb/c mice were injected s.c. with 2×10^5 66 c1.4-GFP cells in the inguinal area between the 4th and 5th nipple on the right side of the body. When tumors reached 2×2-4×4 mm (9 days after tumor injection), mice were placed into 5 groups ((Group 1: untreated control, Group 2: liposome/aerosol control, Group 3: liposomal α-TEA aerosol treatment, Group 4: peanut oil/gavage control, Group 5: α-TEA in peanut oil/gavage treatment) of 10 mice/group) such that the mean tumor volume of each group was closely matched. Daily treatments were initiated on day 9 after tumor injection.
Balb/c mice were injected with 200,000 66 c1.4 GFP cells subcutaneous in the mammary fat pad area between the 4th and 5th nipple on the right side of the body. […] Animals were treated with α-TEA in liposome, vitamin E succinate in liposome, or control liposome alone via aerosol, 7 days per week, for 21 days. Animals were given 75 mg compound via nebulization per day such that each animal received 36 μg compound per day.
The size of the tumors, 9-21 days after injection of 200,000 66 c1.4 GFP cells between the 4th and 5th nipple on the right side of each mouse, is determined. Treatments are initiated on day 9 after tumor inoculation. Each group consists of n=10+/−SE. Gavage Treatment=Treatments of 5 mg of α-TEA in ethanol and peanut oil (0.1 ml volume) are administered daily starting on day 9 after tumor inoculation and continuing through day 21. Gavage Control=Mice received peanut oil and ethanol alone (0.1 ml volume)/daily, starting on day 9 after tumor inoculation and continuing through day 21. Data (tumor size) are depicted as the mean+/−standard error for days 9, 11, 13, 15, 17, 19, and 21.
Balb/c mice were injected with 200,000 66 c1.4 GFP cells subcutaneous in the mammary fat pad area between the 4th and 5th nipple on the right side of the body. […] Animals were treated with α-TEA in liposome vitamin E succinate in liposome, or control liposome alone via oral gavage, 2 times per day, 7 days per week, for 21 days. Animals were given a total of 6 mg compound per day.

MDA-MB-435 GFP FL cells = test: Tumor growth of MDA-MB-435 GFP FL breast cancer cells in nude mice; format: in vivo, Nu/Nu athymic nude mice; details: for reduction of tumor growth: Example 32: liposome gavage, 8 mg per day
Protocol: Animals were given a total of 8 mg compound per day. […] Alpha-TEA liposome gavage reduced tumor growth by 68, 75, 78, 79 and 79% on days 27, 29, 31, 33, and 35, respectively (FIG. 15).
Animals were […] 3 ppm methylselenocysteine (MSC) in water, α-TEA in liposome via aerosol, or gavaged 10 mg/kg b.w. trans-resveratrol (t-RES) in first 1:1. EtOH:physiological saline, and starting at day 24, 6.5% EtOH and 93.5% Neobee oil. A combination group was treated with each of the above three compounds, and a control group was treated with aerosolized liposome. 100 μl water, and 50 μl of the t-Res solvent. Animals were treated seven days a week, for 35+ days.

[8] = AeroTech II nebulizer; geometric standard deviation 2.04
Protocol: Aerosol was administered to mice as previously described (17).

[9] = Serum and tissue levels of α-TEA after liposomal aerosol (HPLC); format: in vivo, mice
Protocol: Eight mice are treated via pulmonary aerosol delivery with 40 mg of α-TEA (5 mg/mouse) in 6 ml liposomes. The mice inhaled the aerosol over a period of 30 minutes until delivery was complete. Mice are sacrificed 0, 2, 6, or 24 hours after the treatment ended. Serum and tissue levels of α-TEA are determined by HPLC analyses (FIG. 7).

[10] = Aerosol characteristics: estimated α-TEA deposited in respiratory tract (HPLC, All Glass Impinger); set-up: species or system mouse; details: liposomal aerosol, 15 min, estimated deposited fraction 30%
Protocol: HPLC analyses were conducted on α-TEA liposomes recovered from aerosol in the All Glass Impinger (Ace Glass Co., Vineland, N.J.). The delivered dosage=concentration (μg/L)×mouse minute volume (1-min/kg)×duration of delivery (min)×estimated deposited fraction (30%; 17).

[11] = test system: cp-70 human ovarian cancer cells; test: Apoptosis in cp-70 ovarian cancer cells in vitro; format: cell-based; details: treated in culture
66 c1.4-GFP cells [12] = test: Colony-forming assay; details: 10 days
Protocol: 66 c1.4-GFP cells were seeded at 600 cells per 35×10 mm tissue culture plate (Nunclon, Rochester, N.Y.) and allowed to adhere over night at 37° C. […] Treatments were left on the cells for 10 days without change of media. After 10 days, media were removed and plates were washed with PBS three times. Cells were stained for 30 min with 1% methylene blue in PBS and colonies >0.5 mm manually counted.

[13] = test system: 66 c1.4 GFP murine mammary tumor cells; test: TUNEL assay for apoptosis in vivo in 66 c1.4-GFP tumor sections; set-up: species or system Balb/c mice; details: liposomal formulation by aerosol, vs control
Text: Deparaffinized sections (5 μm) of tumor tissue were used to assess apoptosis using reagents supplied in the ApopTag In Situ Apoptosis Detection kit (Intergen, Purchase, N.Y.) according to the manufacturer's instructions. Nuclei that stained brown were scored as positive for apoptosis and those that stained blue were scored as negative. At least sixteen 400× microscopic fields were scored per tumor. Data are presented as the mean±S.E. number of apoptotic cells counted in three separate tumors from each group. Pictures of tumor tissue were taken at 1000× magnification.

66 c1.4-GFP tumors [14] = test: KI-67 immunohistochemistry of cell proliferation in tumors; format: in vivo, Balb/c mice; details: liposomal formulation by aerosol, vs control
66 c1.4-GFP tumors [15] = test: CD31 immunohistochemistry of tumor blood vessel numbers; format: in vivo, Balb/c mice; details: liposomal formulation by aerosol, vs control
[16] = Example 33: liposomal aerosol, α-TEA 5 mg/d, 9NC 2 μg/d in nebulizer, listed as Lip/α-TEA
[17] = liposomal aerosol, at sacrifice

Compound: CC[C@@]1(O)C(=O)OCc2c1cc1n(c2=O)Cc2cc3c([N+](=O)[O-])cccc3nc2-1 [9-nitrocamptothecin, reference compound]
- Levels of 9-nitrocamptothecin in the brain [1]: 0
- Inhibition (%) Metastases Lymphnode ([2]; Example 33: liposomal aerosol, α-TEA 5 mg/d, 9NC 2 μg/d in nebulizer, listed as Lip/9NC): 60%

Compound: Cc1c(C)c2c(c(C)c1OCC(=O)O)CC[C@@](C)(CCC[C@H](C)CCC[C@H](C)CCCC(C)C)O2 [α-TEA, 2,5,7,8-tetramethyl-(2R-(4R,8R,12-trimethyltridecyl)chroman-6-yloxy) Acetic Acid]
- long term adverse effects ([3]; non-tumor bearing mice, aerosol or gavage for 17 days, kept eleven months): did not show any adverse effects
- body weight vs control groups ([3]; tumor-bearing mice, liposome aerosol or gavage in ethanol/peanut oil, 5 mg/mouse daily): no significant weight differences; also recorded: No differences in mean body weights
- PARP cleavage (84 kDa fragment) ([4]; 5 μg/ml): only intact PARP protein was detected
- PARP cleavage (84 kDa fragment) ([4]; 10 μg/ml): evident
- PARP cleavage (84 kDa fragment) ([4]; 20 μg/ml): evident
- induction of apoptosis [5]: undergo apoptosis
- apoptosis (percentage of apoptotic cells) (66 c1.4-GFP cells [6]; 2.5 μg/ml): 5%
- apoptosis (percentage of apoptotic cells) (66 c1.4-GFP cells [6]; 5 μg/ml): 6%
- nuclear morphology of DAPI stained cells (66 c1.4-GFP cells [6]; 10 μg/ml): exhibited condensation and fragmented DNA
- reduction of mean tumor volume vs aerosol control ([7]; day 13 of treatment): 50%
- reduction of mean tumor volume vs aerosol control ([7]; day 17 of treatment): 61%
- reduction of tumor growth ([7]; Example 26: liposome aerosol, 75 mg in nebulizer/day, day 21): 67%
- tumor weights vs gavage control ([7]; Example 27: gavage, 5 mg in ethanol and peanut oil daily, days 9-21): no significant differences
- mean tumor volume vs gavage control ([7]; Example 28: gavage, 5 mg/day/mouse EtoH/peanut oil formulation): did not differ
- reduction of tumor growth ([7]; Example 30: liposome gavage, 6 mg per day, day 15): 85%
- reduction of tumor growth ([7]; Example 30: liposome gavage, 6 mg per day, day 17): 85%
- reduction of tumor growth ([7]; Example 30: liposome gavage, 6 mg per day, day 21): 70%
- Inhibition (%) Tumor Growth [7, 16]: 65%
- Inhibition (%) Tumor Growth ([7]; Liposomal, Gavage, 3 mg/2× d): 70%
- reduction of tumor growth (MDA-MB-435 GFP FL cells; day 27): 68%
- reduction of tumor growth (MDA-MB-435 GFP FL cells; day 29): 75%
- reduction of tumor growth (MDA-MB-435 GFP FL cells; day 31): 78%
- reduction of tumor growth (MDA-MB-435 GFP FL cells; day 33): 79%
- reduction of tumor growth (MDA-MB-435 GFP FL cells; day 35): 79%
- decrease of tumor volume from the control (MDA-MB-435 GFP FL cells; Example 35: day 35): 47.8%
- mass median aerodynamic diameter of liposome aerosol [8]: 2.01 μm
- lymph node micrometastatic lesions (average) ([2]; Example 31: liposomal formulation via gavage, 6 mg per day): 3.1±0.8
- Inhibition (%) Metastases Lung [2, 16]: 71%
- Inhibition (%) Metastases Lymphnode [2, 16]: 94%
- Inhibition (%) Metastases Lung ([2]; Liposomal, Aerosol, 5 mg/d, vs aerosol control): 81%
- Inhibition (%) Metastases Lung ([2]; Liposomal, Gavage, 3 mg/2× d): 59%
- Inhibition (%) Metastases Lymphnode ([2]; Liposomal, Gavage, 3 mg/2× d): 56%
- No. Animals/Group with Visible Lung Metastases [2, 17]: 0/10
- No. Visible Lung Tumor Foci/Animal [2, 17]: No visible tumors
- No. Visible Lung Tumor Foci/Animal ([2]; liposomal aerosol, at sacrifice, listed as Aer./Liposome/α-TEA): 0
- serum and tissue presence of α-TEA ([9]; liposomal aerosol 5 mg/mouse over 30 minutes, 0 hours after treatment ended): found only in the stomach tissue
- serum and tissue presence of α-TEA ([9]; liposomal aerosol 5 mg/mouse, 2 hours after completion of treatment): present in the serum and stomach
- serum and tissue presence of α-TEA ([9]; liposomal aerosol 5 mg/mouse, 6 hours after completion of treatment): present in the liver and stomach
- serum and tissue presence of α-TEA ([9]; liposomal aerosol 5 mg/mouse, 24 hours after completion of treatment): present in the liver and stomach
- α-TEA deposited in the respiratory tract of each mouse each day [10]: approximately 36 μg and ~36 μg
- induction of apoptosis [11]: undergo apoptosis
- decrease of colony formation compared to EtOH control (66 c1.4-GFP cells [12]; 1.25 μg/ml): 30%
- colony formation (66 c1.4-GFP cells [12]; 5 μg/ml): No colonies formed
- colony formation (66 c1.4-GFP cells [12]; 10 μg/ml): No colonies formed

Compound: Cc1c(C)c2c(c(C)c1O)CCC(C)(CCCC(C)CCCC(C)CCCC(C)C)O2 (racemic) [dl-α-tocopherol]
- % Enhanement of TUNEL positive apoptotic cells [13]: 44%
- % Reduction of KI67 cell proliferation (66 c1.4-GFP tumors [14]): 33%
- inhibition of tumor growth ([7]; 75 mg in nebulizer/day, day 15 of treatment): 81%
- inhibition of tumor growth ([7]; 75 mg in nebulizer/day, day 17 of treatment): 73%
- % Reduction of CD31 tumor blood vessel numbers (66 c1.4-GFP tumors [15]): 51%
